# Source: US20260184710A1, “CASITAS B-LINEAGE LYMPHOMA PROTOONCOGENE B (CBL-B) DEGRADING COMPOUNDS AND ASSOCIATED METHODS OF USE” (Arvinas Operations, Inc., priority 2022, published 2026)
# Target: T1, Cbl-b (Homo sapiens, UniProt Q13191)
# T1 construct: Cbl-b-HiBit KI Jurkat Cells were purchased from Promega; host or cells: Cbl-b-HiBiT knock-in Jurkat cells
# Assay: Cbl-b Degradation Method B (Nano-Glo HiBiT lytic detection)
# Format: cell-based
# Settings: Cbl-b-HiBit KI Jurkat Cells, incubated at least 6-24 hours; for DC50: half maximal degradation, read-out: Cbl-b Degredation Method B IC50; for Dmax: maximum degradation observed, read-out: Cbl-b Degredation Method B Dmax (%)
# Procedure: Cbl-b Degradation Method B [table] Cbl-b-HiBit KI Jurkat Cells were purchased from Promega, and cell media consisted of RPMI 1640 with 10% […] and 1% pen/strep. The cells were counted, measured for viability, and 35 μL of the cell solution was seeded into 384 well flat bottom plates at a ratio of 20,000 cells per 35 μL. After which, the plates were incubated for ˜24 hours at 37° C. and 5% CO2. Compounds were ordered from Evotec in a 384 well plate at a 1 mM top concentration in DMSO and serially diluted 1:3 in DMSO for an 11-point dose response. Using the Bravo instrument, 1 uL of compound solution or DMSO was transferred to 125 uL of media. Each well was treated with 5 μL of compound plus media mixture or DMO and subsequently incubated for at least 6-24 hours at 37° C. and 5% CO2. After incubation, 30 μL of either NanoGlo media was added to each cell, and the plates read on the Synergy Neo2 machine. The concentration of an exemplary compound that leads to half maximal degradation (DC50) as well as the maximum degradation observed (Dmax, conventionally expressed as a percentage of control) is shown below in Table 2.
# T1 sequence (Q13191 whole entry): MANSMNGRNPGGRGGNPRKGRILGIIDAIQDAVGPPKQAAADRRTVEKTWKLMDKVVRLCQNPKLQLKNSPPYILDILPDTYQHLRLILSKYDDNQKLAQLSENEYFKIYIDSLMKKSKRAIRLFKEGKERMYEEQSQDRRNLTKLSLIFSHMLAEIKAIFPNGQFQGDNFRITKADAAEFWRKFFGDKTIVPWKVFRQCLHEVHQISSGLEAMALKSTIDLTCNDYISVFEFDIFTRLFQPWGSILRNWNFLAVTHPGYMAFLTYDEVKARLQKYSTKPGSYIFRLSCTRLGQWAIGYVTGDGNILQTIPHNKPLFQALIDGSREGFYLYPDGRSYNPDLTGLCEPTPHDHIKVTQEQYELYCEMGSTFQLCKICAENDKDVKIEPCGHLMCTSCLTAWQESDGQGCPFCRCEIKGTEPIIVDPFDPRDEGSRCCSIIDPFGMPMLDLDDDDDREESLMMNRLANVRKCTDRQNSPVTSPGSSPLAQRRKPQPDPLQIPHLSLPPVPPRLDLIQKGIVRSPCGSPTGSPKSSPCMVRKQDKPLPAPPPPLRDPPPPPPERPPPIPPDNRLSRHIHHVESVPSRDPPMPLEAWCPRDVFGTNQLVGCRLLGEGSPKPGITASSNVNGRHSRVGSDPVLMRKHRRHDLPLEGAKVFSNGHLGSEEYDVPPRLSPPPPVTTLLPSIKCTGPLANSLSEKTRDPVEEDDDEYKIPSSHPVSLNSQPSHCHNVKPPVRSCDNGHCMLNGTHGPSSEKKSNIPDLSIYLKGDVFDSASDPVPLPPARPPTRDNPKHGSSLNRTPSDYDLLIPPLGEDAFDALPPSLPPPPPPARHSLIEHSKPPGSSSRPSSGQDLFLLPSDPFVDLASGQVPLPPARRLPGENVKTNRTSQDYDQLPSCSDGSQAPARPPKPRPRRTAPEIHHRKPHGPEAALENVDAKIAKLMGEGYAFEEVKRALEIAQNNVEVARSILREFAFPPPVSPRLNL
SMILES,DC50,Dmax
"Cn1cnnc1CC1(c2cccc(N3Cc4c(cc(CN5CCC(c6ccc7c(c6)CN(C6CCC(=O)NC6=O)C7=O)CC5)cc4C(F)(F)F)C3=O)c2)COC1 (stereo not drawn) [Example 34, 3-[5-(1-{[2-(3-{3-[(4-methyl-4H-1,2,4-triazol-3-yl)methyl]oxetan-3-yl}phenyl)-3-oxo-7-(trifluoromethyl)-2,3-dihydro-1H-isoindol-5-yl]methyl}piperidin-4-yl)-1-oxo-2,3-dihydro-1H-isoindol-2-yl]piperidine-2,6-dione]",> 500 nM,–
"Cn1cnnc1CC1(c2cccc(N3Cc4c(cc(CN5CC(C6CN(c7ccc8c(c7)C(=O)N(C7CCC(=O)NC7=O)C8=O)C6)C5)cc4C(F)(F)F)C3=O)c2)COC1 (stereo not drawn) [Example 48, 2-(2,6-dioxopiperidin-3-yl)-5-(1′-{[2-(3-{3-[(4-methyl-4H-1,2,4-triazol-3-yl)methyl]oxetan-3-yl}phenyl)-3-oxo-7-(trifluoromethyl)-2,3-dihydro-1H-isoindol-5-yl]methyl}-[3,3′-biazetidin]-1-yl)-2,3-dihydro-1H-isoindole-1,3-dione]",50 to 500 nM,35 to 70%
"Cn1cnnc1CC1(c2cccc(N3Cc4c(cc(CN5CCC(CN6CCN(CC7CCN(c8ccc9c(c8)C(=O)N(C8CCC(=O)NC8=O)C9=O)CC7)CC6)CC5)cc4C(F)(F)F)C3=O)c2)COC1 (stereo not drawn) [Example 46, 2-(2,6-dioxopiperidin-3-yl)-5-[4-({4-[(1-{[2-(3-{3-[(4-methyl-4H-1,2,4-triazol-3-yl)methyl]oxetan-3-yl}phenyl)-3-oxo-7-(trifluoromethyl)-2,3-dihydro-1H-isoindol-5-yl]methyl}piperidin-4-yl)methyl]piperazin-1-yl}methyl)piperidin-1-yl]-2,3-dihydro-1H-isoindole-1,3-dione]",> 500 nM,–
"Cn1cnnc1CC1(c2cccc(N3Cc4c(cc(CN5CCC(c6ccc7c(c6)C(=O)N(C6CCC(=O)NC6=O)C7=O)CC5)cc4C(F)(F)F)C3=O)c2)COC1 (stereo not drawn) [Example 33, 2-(2,6-dioxopiperidin-3-yl)-5-(1-{[2-(3-{3-[(4-methyl-4H-1,2,4-triazol-3-yl)methyl]oxetan-3-yl}phenyl)-3-oxo-7-(trifluoromethyl)-2,3-dihydro-1H-isoindol-5-yl]methyl}piperidin-4-yl)-2,3-dihydro-1H-isoindole-1,3-dione]",> 500 nM,–
"Cn1cnnc1CC1(c2cccc(N3Cc4c(cc(CN5CCN([C@H]6CC[C@H](Nc7ccc8c(c7)C(=O)N(C7CCC(=O)NC7=O)C8=O)CC6)CC5)cc4C(F)(F)F)C3=O)c2)COC1 (stereo partly drawn) [Example 44, 2-(2,6-dioxopiperidin-3-yl)-5-{[(1r,4r)-4-(4-{[2-(3-{3-[(4-methyl-4H-1,2,4-triazol-3-yl)methyl]oxetan-3-yl}phenyl)-3-oxo-7-(trifluoromethyl)-2,3-dihydro-1H-isoindol-5-yl]methyl}piperazin-1-yl)cyclohexyl]amino}-2,3-dihydro-1H-isoindole-1,3-dione]",> 500 nM,–
"Cn1cnnc1CC1(c2cccc(N3Cc4c(cc(CN5CCC(c6ccc7c(c6)C(=O)N(C6CCC(=O)NC6=O)C7)CC5)cc4C(F)(F)F)C3=O)c2)COC1 (stereo not drawn) [Example 36, 3-[6-(1-{[2-(3-{3-[(4-methyl-4H-1,2,4-triazol-3-yl)methyl]oxetan-3-yl}phenyl)-3-oxo-7-(trifluoromethyl)-2,3-dihydro-1H-isoindol-5-yl]methyl}piperidin-4-yl)-1-oxo-2,3-dihydro-1H-isoindol-2-yl]piperidine-2,6-dione]",> 500 nM,–
"Cn1cnnc1CC1(c2cccc(N3Cc4c(cc(CN[C@H]5CC[C@H](N6CCN(c7ccc8c(c7)C(=O)N(C7CCC(=O)NC7=O)C8=O)CC6)CC5)cc4C(F)(F)F)C3=O)c2)COC1 (stereo partly drawn) [Example 43, 2-(2,6-dioxopiperidin-3-yl)-5-{4-[(1r,4r)-4-({[2-(3-{3-[(4-methyl-4H-1,2,4-triazol-3-yl)methyl]oxetan-3-yl}phenyl)-3-oxo-7-(trifluoromethyl)-2,3-dihydro-1H-isoindol-5-yl]methyl}amino)cyclohexyl]piperazin-1-yl}-2,3-dihydro-1H-isoindole-1,3-dione]",5 to 50 nM,< 35%
"Cn1cnnc1CC1(c2cccc(N3Cc4c(cc(CN5CCC(COCC6CCN(c7ccc8c(c7)C(=O)N(C7CCC(=O)NC7=O)C8=O)CC6)CC5)cc4C(F)(F)F)C3=O)c2)COC1 (stereo not drawn) [Example 40, 2-(2,6-dioxopiperidin-3-yl)-5-(4-{[(1-{[2-(3-{3-[(4-methyl-4H-1,2,4-triazol-3-yl)methyl]oxetan-3-yl}phenyl)-3-oxo-7-(trifluoromethyl)-2,3-dihydro-1H-isoindol-5-yl]methyl}piperidin-4-yl)methoxy]methyl}piperidin-1-yl)-2,3-dihydro-1H-isoindole-1,3-dione]",> 500 nM,–

# Further lines, results first:
DC50,Dmax,SMILES
> 500 nM,–,"Cn1cnnc1CC1(c2cccc(N3Cc4c(cc(CN5CCC[C@H](CN6CC[C@@H](OC7CCN(c8ccc9c(c8F)CN(C8CCC(=O)NC8=O)C9=O)CC7)CC6(C)C)C5)cc4C(F)(F)F)C3=O)c2)CC(C#N)C1 (single isomer, unassigned) [Example 290, (1r**,3r**)-3-[3-(6-{[(3S)-3-{[(4R*)-4-({1-[2-(2,6-dioxopiperidin-3-yl)-4-fluoro-1-oxo-2,3-dihydro-1H-isoindol-5-yl]piperidin-4-yl}oxy)-2,2-dimethylpiperidin-1-yl]methyl}piperidin-1-yl]methyl}-1-oxo-4-(trifluoromethyl)-2,3-dihydro-1H-isoindol-2-yl)phenyl]-3-[(4-methyl-4H-1,2,4-triazol-3-yl)methyl]cyclobutane-1-carbonitrile]"
< 5 nM,> 70%,"CC(C)n1c(=O)n(C2CCC(=O)NC2=O)c2ccc(N3CCC(O[C@H]4CC[C@@H](CN5CCN(C[C@H]6CCCN(Cc7cc(C(F)(F)F)c8cn(-c9cccc(C%10(Cc%11nncn%11C)COC%10)c9)nc8c7)C6)C(C)(C)C5)CC4)CC3)cc21 (stereo partly drawn) [Example 266, 3-[2-oxo-3-(propan-2-yl)-5-(4-{[(1r,4r)-4-[(3,3-dimethyl-4-{[(3S)-1-{[2-(3-{3-[(4-methyl-4H-1,2,4-triazol-3-yl)methyl]oxetan-3-yl}phenyl)-4-(trifluoromethyl)-2H-indazol-6-yl]methyl}piperidin-3-yl]methyl}piperazin-1-yl)methyl]cyclohexyl]oxy}piperidin-1-yl)-2,3-dihydro-1H-1,3-benzodiazol-1-yl]piperidine-2,6-dione]"
> 500 nM,–,"C[C@@H]1c2nc(N3CCC(O[C@H]4CC[C@H](CN5CCN(Cc6cc7c(c(C(F)(F)F)c6)CN(c6cccc(C8(Cc9nncn9C)CC(C#N)C8)c6)C7=O)C(C)(C)C5)CC4)CC3)ccc2C(=O)N1C1CCC(=O)NC1=O (single isomer, unassigned) [Example 309, (1r***,3r***)-3-(3-{6-[(2,2-dimethyl-4-{[(1r**,4r**)-4-({1-[(7R*)-6-(2,6-dioxopiperidin-3-yl)-7-methyl-5-oxo-5H,6H,7H-pyrrolo[3,4-b]pyridin-2-yl]piperidin-4-yl}oxy)cyclohexyl]methyl}piperazin-1-yl)methyl]-1-oxo-4-(trifluoromethyl)-2,3-dihydro-1H-isoindol-2-yl}phenyl)-3-[(4-methyl-4H-1,2,4-triazol-3-yl)methyl]cyclobutane-1-carbonitrile]"
< 5 nM,> 70%,"Cc1cc(N2CCC(O[C@H]3CC[C@H](CN4CCN(Cc5cc6c(c(C(F)(F)F)c5)CN(c5cccc(C7(Cc8nncn8C)CC7)c5)C6=O)C(C)(C)C4)CC3)CC2)c(F)c2c1C(=O)N(C1CCC(=O)NC1=O)C2 (stereo partly drawn) [Example 227, 3-[4-fluoro-7-methyl-1-oxo-5-(4-{[(1r,4r)-4-[(3,3-dimethyl-4-{[2-(3-{1-[(4-methyl-4H-1,2,4-triazol-3-yl)methyl]cyclopropyl}phenyl)-3-oxo-7-(trifluoromethyl)-2,3-dihydro-1H-isoindol-5-yl]methyl}piperazin-1-yl)methyl]cyclohexyl]oxy}piperidin-1-yl)-2,3-dihydro-1H-isoindol-2-yl]piperidine-2,6-dione]"
> 500 nM,–,"Cn1cnnc1C[C@]1(c2cccc(N3Cc4c(cc(CN5CCN(C[C@H]6CC[C@H](OC7CCN(c8ccc(C9CCC(=O)NC9=O)nc8)CC7)CC6)CC5)cc4C(F)(F)F)C3=O)c2)C[C@H](C#N)C1 (stereo partly drawn) [Example 213, (1r,3r)-3-[(4-methyl-4H-1,2,4-triazol-3-yl)methyl]-3-(3-{1-oxo-6-[(4-{[(1r,4r)-4-({1-[6-(2,6-dioxopiperidin-3-yl)pyridin-3-yl]piperidin-4-yl}oxy)cyclohexyl]methyl}piperazin-1-yl)methyl]-4-(trifluoromethyl)-2,3-dihydro-1H-isoindol-2-yl}phenyl)cyclobutane-1-carbonitrile]"
< 5 nM,–,"CC(C)n1c(=O)n(C2CCC(=O)NC2=O)c2ccc(N3CCC(CN4CCN(C[C@H]5CCCN(Cc6cc7c(c(C(F)(F)F)c6)CN(c6cccc(C8(Cc9nncn9C)CC(C#N)C8)c6)C7=O)C5)C(C)(C)C4)CC3)cc21 (stereo partly drawn) [Example 273, (1r*,3r*)-3-[3-(6-{[(3S)-3-{[4-({1-[1-(2,6-dioxopiperidin-3-yl)-2-oxo-3-(propan-2-yl)-2,3-dihydro-1H-1,3-benzodiazol-5-yl]piperidin-4-yl}methyl)-2,2-dimethylpiperazin-1-yl]methyl}piperidin-1-yl]methyl}-1-oxo-4-(trifluoromethyl)-2,3-dihydro-1H-isoindol-2-yl)phenyl]-3-[(4-methyl-4H-1,2,4-triazol-3-yl)methyl]cyclobutane-1-carbonitrile]"
